Measurements reported in patent publication US20050228188A1, “Astaxanthin medium-chain fatty acid ester, process for producing the same and composition containing the ester” (Suntory Limited, priority 2002, published 2005).

Experiment: Digestibility of astaxanthins in rats: astaxanthin content in blood plasma and liver by HPLC after oral administration
Conditions: for digestibility (content of astaxanthin in blood plasma and liver) compared with astaxanthin extracted from Haematococcus (Astax9000H): rat, in vivo, po, 100 mg/kg
Experimental: Using a commercially available astaxanthin extracted from Chlorophyceae of Haematococcus (Itano, product name: Astax9000H) and astaxanthins mono- and di-esterified with a medium-chain fatty acid (Asta-C8-monoester and Asta-C8-diester), the digestibility of these astaxanthins was studied using rats. For the experiment, these astaxanthins were diluted with olive oil so as to obtain a ratio of 100 mg/kg in the conversion of a free astaxanthin, and the diluted astaxanthins were administered to rats (Wister rat). The content of astaxanthin contained in the blood (blood plasma) and the liver of each rat was measured using HPLC. The blood and liver were sampled at 3, 5, 7 and 10 hours after the administration.

## CCCCCCCC(=O)O[C@H]1CC(C)(C)C(/C=C/C(C)=C/C=C/C(C)=C/C=C/C=C(C)/C=C/C=C(C)/C=C/C2=C(C)C(=O)[C@@H](OC(=O)CCCCCCC)CC2(C)C)=C(C)C1=O [Asta-C8-diester, astaxanthin octanoic acid diester]
  digestibility (content of astaxanthin in blood plasma and liver) compared with astaxanthin extracted from Haematococcus (Astax9000H): much better digestibility

## CCCCCCCC(=O)OC1CC(C)(C)C(C=CC(C)=CC=CC(C)=CC=CC=C(C)C=CC=C(C)C=CC2=C(C)C(=O)C(O)CC2(C)C)=C(C)C1=O (stereo not drawn) [Asta-C8-monoester, astaxanthin octanoic acid monoester]
  digestibility (content of astaxanthin in blood plasma and liver) compared with astaxanthin extracted from Haematococcus (Astax9000H): much better digestibility
rats, oral, 100 mg/kg in conversion of free astaxanthin, blood plasma and liver at 3, 5, 7 and 10 hours
  digestibility, rank among the astaxanthins tested: most digested
